Measured values reported in patent US11976083B2, “Inhibitors of peptidylarginine deiminases” (Gilead Sciences, Inc., priority 2020, dated 2024).

Target: T1, human PAD4 (Homo sapiens, UniProt Q9UM07)
T1 construct: human PAD4 (NM_012387), A2-P663, was PCR amplified; His-SUMO (N, cleaved yes); made in house; host or cells: E. coli BL21(DE3)
Test: In vitro PAD4 BAEE biochemical assay
Conditions: BAEE substrate 3 mM, 5 nM PAD4, 2 mM calcium chloride; geometric mean of multiple experiments
In short: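 Recombinant PAD4 (5 nM final) with 2 mM CaCl2 was preincubated with compound for 30 min at 25 °C in MOPS pH 7.6 buffer with DTT, then reacted with 3 mM BAEE for 2 h at 25 °C. Released ammonia was detected fluorimetrically with o-phthalaldehyde/DTT; IC50 from four-parameter fit, geometric mean of experiments.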

T1 sequence (Q9UM07 2-663): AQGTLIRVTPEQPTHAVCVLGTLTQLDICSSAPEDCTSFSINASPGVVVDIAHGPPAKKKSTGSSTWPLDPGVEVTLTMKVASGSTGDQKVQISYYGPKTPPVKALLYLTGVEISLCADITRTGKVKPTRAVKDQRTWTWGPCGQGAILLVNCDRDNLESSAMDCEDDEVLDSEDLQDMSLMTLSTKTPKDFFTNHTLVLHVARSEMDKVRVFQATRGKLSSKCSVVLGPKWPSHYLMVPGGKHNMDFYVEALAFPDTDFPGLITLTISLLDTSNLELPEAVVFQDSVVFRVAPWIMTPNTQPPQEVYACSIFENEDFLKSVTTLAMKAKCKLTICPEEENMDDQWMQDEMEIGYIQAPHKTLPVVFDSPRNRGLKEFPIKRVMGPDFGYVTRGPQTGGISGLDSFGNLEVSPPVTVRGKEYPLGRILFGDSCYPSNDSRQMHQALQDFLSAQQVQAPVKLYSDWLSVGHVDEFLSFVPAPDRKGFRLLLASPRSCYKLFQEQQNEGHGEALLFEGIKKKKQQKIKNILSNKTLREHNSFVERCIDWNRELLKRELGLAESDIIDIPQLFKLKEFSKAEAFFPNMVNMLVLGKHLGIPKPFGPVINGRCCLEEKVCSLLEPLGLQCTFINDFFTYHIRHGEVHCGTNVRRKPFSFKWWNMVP

Row | SMILES | IC50 [µM]
1 | COc1cc(C(=O)N2[C@H]3CC[C@@H]2[C@H](N)C3)cc2nc(-c3cc4ccc5nc4n3CCCCCCCCOc3ncccc3-5)n(C)c12 [Example 86, [(1~{R},2~{R},4~{S})-2-amino-7-azabicyclo[2.2.1]heptan-7-yl]-[7-methoxy-1-methyl-2-(8-oxa-6,17,23-triazatetracyclo[15.5.2.0^{2,7}.0^{20,24}]tetracosa-1(23),2,4,6,18,20(24),21-heptaen-18-yl)benzimidazol-5-yl]methanone] | 0.643
2 | COc1cc(C(=O)N2[C@H]3CC[C@@H]2[C@H](N)C3)cc2nc(-c3cc4ccc5nc4n3CCCCCCC(=O)Nc3ccccc3-5)n(C)c12 [Example 87, 17-[5-[(1~{R},2~{R},4~{S})-2-amino-7-azabicyclo[2.2.1]heptane-7-carbonyl]-7-methoxy-1-methyl-benzimidazol-2-yl]-8,16,22-triazatetracyclo[14.5.2.0^{2,7}.0^{19,23}] tricosa-1(22),2,4,6,17,19(23),20-heptaen-9-one] | 0.083
3 | COc1cc(C(=O)N2[C@H]3CC[C@@H]2[C@H](N)C3)cc2nc(-c3cc4ccc5cc4n3CCCCCCC(=O)Nc3ncccc3-5)n(C)c12 [Example 88, 17-[5-[(1˜{R},2˜{R},4˜{S})-2-amino-7-azabicyclo[2.2.1]heptane-7-carbonyl]-7-methoxy-1-methyl-benzimidazol-2-yl]-6,8,16-triazatetracyclo[14.5.2.0^{2,7}.0^{19,23}]tricosa-1(22),2,4,6,17,19(23),20-heptaen-9-one] | 0.097
4 | COc1cc(C(=O)N2[C@H]3CC[C@@H]2[C@H](N)C3)cc2nc(-c3cc4ccc5nc4n3CCCCCCCC(=O)Nc3ncccc3-5)n(C)c12 [Example 89, 18-[5-[(1~{R},2~{R},4~{S})-2-amino-7-azabicyclo[2.2.1]heptane-7-carbonyl]-7-methoxy-1-methyl-benzimidazol-2-yl]-6,8,17,23-tetrazatetracyclo[15.5.2.0^{2,7}.0^{20,24}] tetracosa-1(23),2,4,6,18,20(24),21-heptaen-9-one] | 0.113
5 | COc1cc(C(=O)N2[C@H]3CC[C@@H]2[C@H](N)C3)cc2nc(-c3cc4ccc5nc4n3CCCCCCC(=O)Nc3ccncc3-5)n(C)c12 [Example 90, 17-[5-[(1~{R},2~{R},4~{S})-2-amino-7-azabicyclo[2.2.1]heptane-7-carbonyl]-7-methoxy-1-methyl-benzimidazol-2-yl]-4,8,16,22-tetrazatetracyclo[14.5.2.0^{2,7}.0^{19,23}] tricosa-1(22),2,4,6,17,19(23),20-heptaen-9-one] | 0.497
6 | COc1cc(C(=O)N2[C@H]3CC[C@@H]2[C@H](N)C3)cc2nc(-c3cc4ccc5nc4n3CCCCCCNC(=O)c3ncccc3-5)n(C)c12 [Example 91, 17-[5-[(1˜{R},2˜{R},4˜{S})-2-amino-7-azabicyclo[2.2.1]heptane-7-carbonyl]-7-methoxy-1-methyl-benzimidazol-2-yl]-6,9,16,22-tetrazatetracyclo[14.5.2.0^{2,7}.0^{19,23}]tricosa-1(22),2,4,6,17,19(23),20-heptaen-8-one] | 0.082
7 | COc1cc(C(=O)N2[C@H]3CC[C@@H]2[C@H](N)C3)cc2nc(-c3cc4ccc5nc4n3CCCCCC(=O)Nc3ncccc3-5)n(C)c12 [Example 92, 16-[5-[(1~{R},2~{R},4~{S})-2-amino-7-azabicyclo[2.2.1]heptane-7-carbonyl]-7-methoxy-1-methyl-benzimidazol-2-yl]-6,8,15,21-tetrazatetracyclo[13.5.2.0^{2,7}.0^{18,22}] docosa-1(21),2(7),3,5,16,18(22),19-heptaen-9-one] | 0.175
8 | COc1cc(C(=O)N2[C@H]3CC[C@@H]2[C@H](N)C3)cc2nc(-c3cc4ccc5nc4n3CCCCCCCC(=O)Nc3ccccc3-5)n(C)c12 [Example 93, 18-[5-[(1~{R},2~{R},4~{S})-2-amino-7-azabicyclo[2.2.1]heptane-7-carbonyl]-7-methoxy-1-methyl-benzimidazol-2-yl]-8,17,23-triazatetracyclo[15.5.2.0^{2,7).0^{20,24}] tetracosa-1(23),2,4,6,18,20(24),21-heptaen-9-one] | 0.161
9 | COc1cc(C(=O)N2[C@H]3CC[C@@H]2[C@H](N)C3)cc2nc(-c3cc4ccc5cc4n3CCCCCCC(=O)Nc3ccccc3-5)n(C)c12 [Example 94, 17-[5-[(1~{R},2~{R},4~{S})-2-amino-7-azabicyclo[2.2.1]heptane-7-carbonyl]-7-methoxy-1-methyl-benzimidazol-2-yl]-8,16-diazatetracyclo[14.5.2.0^{2,7}.0^{19,23}] tricosa-1(22),2,4,6,17,19(23),20-heptaen-9-one] | 0.165
10 | COc1cc(C(=O)N2[C@H]3CC[C@@H]2[C@H](N)C3)cc2nc(-c3cc4ccc5nc4n3CCCCCCC(=O)Nc3cnccc3-5)n(C)c12 [Example 95, 17-[5-[(1~{R},2~{R},4~{S})-2-amino-7-azabicyclo[2.2.1]heptane-7-carbonyl]-7-methoxy-1-methyl-benzimidazol-2-yl]-5,8,16,22-tetrazatetracyclo[14.5.2.0^{2,7}.0^{19,23}] tricosa-1(22),2,4,6,17,19(23),20-heptaen-9-one] | 0.086
11 | COc1cc(C(=O)N2[C@H]3CC[C@@H]2[C@H](N)C3)cc2nc(-c3cc4ccc5nc4n3CCCCCCNc3ncccc3-5)n(C)c12 [Example 96, [(1˜{R},2˜{R},4˜{S})-2-amino-7-azabicyclo[2.2.1]heptan-7-yl]-[7-methoxy-1-methyl-2-(6,8,15,21-tetrazatetracyclo[13.5.2.0^{2,7}.0^{18,22}]docosa-1(21),2,4,6,16,18(22),19-heptaen-16-yl)benzimidazol-5-yl]methanone] | 3.13
12 | COc1cc(C(=O)N2[C@H]3CC[C@@H]2[C@H](N)C3)cc2nc(-c3cc4ccc5cc4n3CCCCCCNC(=O)c3ccccc3-5)n(C)c12 [Example 97, 17-[5-[(1~{R},2~{R},4~{S})-2-amino-7-azabicyclo[2.2.1]heptane-7-carbonyl]-7-methoxy-1-methyl-benzimidazol-2-yl]-9,16-diazatetracyclo[14.5.2.0^{2,7}.0^{19,23}] tricosa-1(22),2,4,6,17,19(23),20-heptaen-8-one] | 0.057
13 | COc1cc(C(=O)N2[C@H]3CC[C@@H]2[C@H](N)C3)cc2nc(-c3cc4ccc5cc4n3CCCCCCNC(=O)c3ncccc3-5)n(C)c12 [Example 98, 17-[5-[(1~{R},2~{R},4~{S})-2-amino-7-azabicyclo[2.2.1]heptane-7-carbonyl]-7-methoxy-1-methyl-benzimidazol-2-yl]-6,9,16-triazatetracyclo[14.5.2.0^{2,7}.0^{19,23}] tricosa-1(22),2,4,6,17,19(23),20-heptaen-8-one] | 0.122
14 | COc1cc(C(=O)N2[C@H]3CC[C@@H]2[C@H](N)C3)cc2nc(-c3cc4ccc5cc4n3CCCCCCC(C)(C)C(=O)Nc3ncccc3-5)n(C)c12 [Example 99, 18-[5-[(1~{R},2~{R},4~{S})-2-amino-7-azabicyclo[2.2.1]heptane-7-carbonyl]-7-methoxy-1-methyl-benzimidazol-2-yl]-10,10-dimethyl-6,8,17-triazatetracyclo[15.5.2.0^{2,7}.0^{20,24}] tetracosa-1(23),2(7),3,5,18,20(24),21-heptaen-9-one] | 0.111
15 | COc1cc(C(=O)N2[C@H]3CC[C@@H]2[C@H](N)C3)cc2nc(-c3cc4ccc5cc4n3CCCCCCC(C)(C)C(=O)Nc3ccccc3-5)n(C)c12 [Example 100, 18-[5-[(1~{R},2~{R},4~{S})-2-amino-7-azabicyclo[2.2.1]heptane-7-carbonyl]-7-methoxy-1-methyl-benzimidazol-2-yl]-10,10-dimethyl-8,17-diazatetracyclo[15.5.2.0^{2,7}.0^{20,24}] tetracosa-1(23),2(7),3,5,18,20(24),21-heptaen-9-one] | 0.833
16 | COc1cc(C(=O)N2[C@H]3CC[C@@H]2[C@H](N)C3)cc2nc(-c3cc4ccc5cc4n3CCCC3CCN(CC3)C(=O)c3ccccc3-5)n(C)c12 [Example 101, 17-[5-[(1~{R},2~{R},4~{S})-2-amino-7-azabicyclo[2.2.1]heptane-7-carbonyl]-7-methoxy-1-methyl-benzimidazol-2-yl]-9,16-diazapentacyclo[14.5.2.2^{9,12}.0^{2,7}.0^ {19,23}]pentacosa-1(22),2,4,6,17,19(23),20-heptaen-8-one] | 7.45
17 | COc1cc(C(=O)N2[C@H]3CC[C@@H]2[C@H](N)C3)cc2nc(-c3cc4ccc5nc4n3CCCCCC(C)(C)C(=O)N[C@@H]5C)n(C)c12 [Example 102, (10~{R})-16-[5-[(1~{R},2~{R},4~{S})-2-amino-7-azabicyclo[2.2.1]heptane-7-carbonyl]-7-methoxy-1-methyl-benzimidazol-2-yl]-7,7,10-trimethyl-1,9,18-triazatricyclo[9.5.2.0^{14,17}]octadeca-11(18),12,14(17),15-tetraen-8-one] | 0.045
18 | CCCO[C@@H]1CCN(C(=O)c2cc(OC)c3c(c2)nc(-c2cc4ccc5nc4n2CCCCCCC(C)(C)C(=O)N[C@@H]5C)n3C)C[C@@H]1N [Example 103, (11~{R})-17-[5-[(3~{S},4~{R})-3-amino-4-propoxy-piperidine-1-carbonyl]-7-methoxy-1-methyl-benzimidazol-2-yl]-8,8,11-trimethyl-1,10,19-triazatricyclo[10.5.2.0^{15,18}]nonadeca-12(19),13,15(18),16-tetraen-9-one] | 0.166
19 | CCO[C@@H]1CCN(C(=O)c2cc(OC)c3c(c2)nc(-c2cc4ccc5nc4n2CCCCCCC(C)(C)C(=O)N[C@@H]5C)n3C)C[C@@H]1N [Example 104, (11~{R})-17-[5-[(3~{S},4~{R})-3-amino-4-ethoxy-piperidine-1-carbonyl]-7-methoxy-1-methyl-benzimidazol-2-yl]-8,8,11-trimethyl-1,10,19-triazatricyclo[10.5.2.0^{15,18}]nonadeca-12(19),13,15(18),16-tetraen-9-one] | 0.115
